# “And” between values parts separate entries of the source, which are not always exact repeats. Identical values can stand only once.
# How the values were obtained:
# boron transporter (Bor1) = target: T1, boron transporter (Bor1) (Arabidopsis thaliana, UniProt Q8VYR7); assay: Structural stability and extraction of Bor1 by heat fluorescence size exclusion chromatography (hFSEC)
# T1 construct: made in house; host or cells: Saccharomyces cerevisiae FGY217
# Method: An experiment for measuring the structural stability of a boron transporter (Bor1) by the MNAs was performed. The structural stability of Bor1 was measured using heat fluorescence size exclusion chromatography (hFSEC), and the concentrations of the MNAs and DDM were CMC plus 0.04% by weight. Specifically, Bor1 of Arabidopsis thaliana was expressed in Saccharomyces cerevisiae FGY217 cells as a fusion protein having a C-terminal GFP-His tag. The cells were grown in a -URA medium supplemented with 0.1% glucose. Expression of proteins was induced by adding 2% galactose, and the cells were then cultured at 20° C. for 18 hours. Here, the cell culture was carried out according to the method described in the article by D. Drew et al. (Nat. Protoc. 2008, 3, 784-798.). The cells were collected to prepare membranes, and the cell collection was carried out according to the method described in the article by J. Leung et al. (Protein Expr. Purif. 2010, 72, 139-146.). The membranes including the Bor1-GFP fusion protein were diluted with phosphate-buffered saline (PBS, pH 7.4) until the final concentration of the total proteins reached 2.8 mg/mL. In this case, 1% by weight of DDM or 1% by weight of MNA (MNA-1, MNA-2, MNA-3, MNA-4, MNA-5, MNA-6, or MNA-7) was added to the PBS. Samples were incubated for an hour while shaking at 4° C., and insoluble materials were then removed by centrifugation at 14,000 g and 4° C. for an hour. The supernatant including the dissolved protein samples was heated at 40° C. for 10 minutes, and the strongly aggregated proteins were removed by centrifugation at 14,000 g and 4° C. for 10 minutes. 200 μL of the supernatant of the samples was injected into a Superose 6 10/300 column equilibrated with 20 mM Tris (pH 7.5), 150 mM NaCl, and 0.03% DDM. Each of elution fractions was collected in 200 μL fractions at a retention volume of 6.4 mL (e.g., 6.4 mL after elusion) in a clear bottom 96-well plate. The GFP fluorescence of each of the fractions was measured at an excitation wavelength of 470 nm and an emission wavelength of 512 nm.
# [1] = Critical micellar concentration (CMC) by hydrophobic fluorescence stain diphenylhexatriene (DPH); format: physicochemical; conditions: aqueous solution
# Description: A method of measuring the CMC is not particularly limited, but the methods widely known in the related art may be used. For example, the CMC may be measured by a fluorescence detection method using diphenylhexatriene (DPH).
# (§1) To determine characteristics of the MNAs of Preparative Example 1 to 10 synthesized according to the synthesis method of Example 1, the molecular weights (M.W.) and critical micellar concentrations (CMCs) of the MNAs and the hydrodynamic radii (Rh) of the formed micelles were measured.
# (§2) Specifically, the critical micellar concentration (CMC) was measured using a hydrophobic fluorescence stain (diphenylhexatriene (DPH)), and the hydrodynamic radii (Rh) of the micelles formed by each of the preparations were measured by a dynamic light scattering (DLS) experiment. The measured results were compared to those of DDM that is a conventional amphipathic molecule (a detergent), and are listed in Table 1.
# [2] = target: T2, human β2 adrenergic receptor (β2AR) (Homo sapiens, UniProt P07550); assay: mBBr-β2AR bimane spectra at detergent concentration below CMC; format: biochemical; conditions: detergent diluted to a fiftieth of its CMC, compared to DDM, FIG. 21
# T2 construct: made in house
# T2 sequence (P07550 whole entry): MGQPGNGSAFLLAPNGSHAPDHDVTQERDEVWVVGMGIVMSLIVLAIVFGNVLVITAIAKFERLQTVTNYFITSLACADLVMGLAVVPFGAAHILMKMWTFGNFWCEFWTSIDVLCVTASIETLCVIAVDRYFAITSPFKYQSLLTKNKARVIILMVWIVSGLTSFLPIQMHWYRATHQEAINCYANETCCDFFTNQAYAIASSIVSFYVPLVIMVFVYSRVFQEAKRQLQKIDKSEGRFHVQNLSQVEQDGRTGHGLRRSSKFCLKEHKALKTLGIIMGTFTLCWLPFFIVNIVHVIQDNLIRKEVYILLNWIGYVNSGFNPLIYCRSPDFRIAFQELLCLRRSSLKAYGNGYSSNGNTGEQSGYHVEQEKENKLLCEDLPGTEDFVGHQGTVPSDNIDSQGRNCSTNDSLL
# Method: Experiments for comparing the structural changes of the β2AR protein by the MNAs and DDM at a concentration below CMCs of the amphipathic molecules were performed.
# Specifically, 0.5 μL of a non-ligand mBBr-labeled receptor dissolved at 50 μNI in a 20×CMC concentration of MNA-5, MNA-6, or MNA-7 was diluted with 500 μL of an NH buffer (20 mM HEPES pH 7.5, and 100 mM NaCl). The proteins were cultured for 30 minutes, and the bimane spectra thereof were measured. The receptor dissolved in 0.1% DDM was diluted with the NH buffer, and used as the control. Data was presented as an average of three separate experiments performed in triplicate.
# [3] = Hydrodynamic radius and size distribution of micelles by dynamic light scattering (DLS); format: physicochemical
# Description: A method of measuring the radius of the micelle is not particularly limited, but the methods widely known in the related art may be used. For example, the radius of the micelle may be measured using a dynamic light scattering (DLS) experiment.
# as §1, §2
# Meanwhile, the size distributions of the micelles formed by the MNAs were measured using DLS, and the measurement results are shown in FIG. 17. The MNAs were used at a content of 1.0% by weight.
# [4] = target: T2, human β2 adrenergic receptor (β2AR); assay: Bimane fluorescence spectra of mBBr-β2AR with ISO or ISO plus G-protein; format: biochemical; conditions: combination of ISO and G-protein, FIG. 20
# Method: Experiments for measuring the structural stabilities of a human β2 adrenergic receptor (β2AR), a G-protein-coupled receptor (GPCR), in the MNAs were performed.
# Experiments for measuring the structural changes and structural stabilities of mBBr-β2AR by the MNAs (MNA-5, MNA-6, MNA-7) and DDM according to the presence or absence of a full agonist (isopreoterenol (ISO)) or a combination of ISO and G-protein were performed.
# Specifically, β2AR dissolved in 0.1% DDM was purified according to the method disclosed in the article by D. M. Rosenbaum et al. (Science 2007, 318, 1266-1273) and then concentrated to a concentration of approximately 1 mg/mL. […] The mBBr-labeled β2AR was cultured for 30 minutes, and the mBBr spectra thereof were measured and compared to the spectra of the mBBr-labeled receptor dissolved in 0.1% DDM. The fluorescence of the mBBr-labeled β2AR was measured at 370 nm and thus determined by emission from 430 to 510 nm at 1-nm increments with 1 nm s^−1 integration using a Spex FluoroMax-3 spectrofluorometer (Jobin Yvon Inc.) which was run in a photon counting mode through a 4-nm emission bandwidth pass. mBBr dissolved in DDM was used as the positive control. […]
# T1 sequence (Q8VYR7 whole entry): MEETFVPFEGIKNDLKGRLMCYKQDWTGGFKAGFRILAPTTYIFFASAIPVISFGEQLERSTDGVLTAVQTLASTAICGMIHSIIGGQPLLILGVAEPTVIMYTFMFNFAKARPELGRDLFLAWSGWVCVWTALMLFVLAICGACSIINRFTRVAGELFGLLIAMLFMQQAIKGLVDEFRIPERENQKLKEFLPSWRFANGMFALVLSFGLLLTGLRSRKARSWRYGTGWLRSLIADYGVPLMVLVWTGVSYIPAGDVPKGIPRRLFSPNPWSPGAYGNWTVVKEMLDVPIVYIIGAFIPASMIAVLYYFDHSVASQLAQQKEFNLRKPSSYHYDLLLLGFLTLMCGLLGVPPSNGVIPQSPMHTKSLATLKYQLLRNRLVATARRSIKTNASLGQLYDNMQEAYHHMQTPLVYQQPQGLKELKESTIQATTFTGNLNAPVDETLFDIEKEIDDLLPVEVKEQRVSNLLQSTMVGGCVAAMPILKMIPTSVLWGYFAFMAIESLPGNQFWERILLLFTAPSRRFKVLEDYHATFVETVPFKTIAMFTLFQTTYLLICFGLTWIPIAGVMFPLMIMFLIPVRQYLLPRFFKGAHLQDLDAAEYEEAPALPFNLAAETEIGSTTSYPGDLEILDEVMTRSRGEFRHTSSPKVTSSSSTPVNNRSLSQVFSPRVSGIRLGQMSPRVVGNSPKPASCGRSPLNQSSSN
structure (smiles),measurement,setting,value
CCCCCCCCCCCCO[C@H]([C@@H](OCCCCCCCCCCCC)[C@H](CO[C@@H]1OC(CO)[C@@H](O)C(O)C1O)O[C@@H]1OC(CO)[C@@H](O)C(O)C1O)[C@H](CO[C@@H]1OC(CO)[C@@H](O)C(O)C1O)O[C@@H]1OC(CO)[C@@H](O)C(O)C1O (stereo partly drawn) [MNA-5],Bor1 extraction efficiency,"boron transporter (Bor1); 1% by weight detergent, membranes with Bor1-GFP",60%
same,level of Bor1 protein aggregation after heat treatment,"boron transporter (Bor1); hFSEC, 40° C. for 10 minutes, FIG. 18",lower level of Bor1 aggregation than DDM
same,CMC,[1],~0.004 mM
same,stability of β2AR,[2],secured for a prolonged period of time
same,"Rh (nm), hydrodynamic radius of micelles",[3],3.0 nm and 3.0 ± 0.01 nm
same,bimane fluorescence spectra of mBBr-β2AR,[4],slightly higher fluorescence intensity than DDM
